Test results reported in ChEMBL document CHEMBL2216750, “Irreversible protein kinase inhibitors: balancing the benefits and risks” (J Med Chem, 2012).

Experiments:
[1] = target: RAC-alpha serine/threonine-protein kinase (Homo sapiens, UniProt P31749); experiment: Inhibition of human AKT1 using biotinylated GSKalpha peptide (SGRARTSSFA) as a substrate after 1 hr
[2] = target: T1, Proto-oncogene tyrosine-protein kinase Src (Gallus gallus, UniProt P00523); experiment: Inhibition of chicken c-Src using IYGEFKKK peptide as a substrate and [32P]ATP by […]
[3] = target: Dual specificity mitogen-activated protein kinase kinase 1 (Homo sapiens, UniProt Q02750); experiment: Inhibition of MEK1
[4] = target: Mitogen-activated protein kinase 1 (Homo sapiens, UniProt P28482); experiment: Inhibition of Erk2
[5] = target: T2, Dual specificity mitogen-activated protein kinase kinase 7 (Homo sapiens, UniProt O14733); experiment: Inhibition of MEK7
T2 sequence (O14733 whole entry): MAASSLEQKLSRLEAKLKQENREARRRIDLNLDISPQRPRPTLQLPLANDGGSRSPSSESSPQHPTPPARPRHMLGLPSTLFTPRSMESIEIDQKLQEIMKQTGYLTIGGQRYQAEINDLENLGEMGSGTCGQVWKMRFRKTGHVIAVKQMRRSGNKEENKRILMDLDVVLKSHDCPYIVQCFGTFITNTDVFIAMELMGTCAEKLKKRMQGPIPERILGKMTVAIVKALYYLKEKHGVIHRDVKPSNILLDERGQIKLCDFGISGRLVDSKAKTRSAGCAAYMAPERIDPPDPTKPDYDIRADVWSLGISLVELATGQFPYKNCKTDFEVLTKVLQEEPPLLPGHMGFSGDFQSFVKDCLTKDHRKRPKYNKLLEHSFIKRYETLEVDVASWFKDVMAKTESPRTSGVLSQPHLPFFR

[6] = target: T3, Dual specificity mitogen-activated protein kinase kinase 4 (Homo sapiens, UniProt P45985); experiment: Inhibition of MKK4
T3 sequence (P45985 whole entry): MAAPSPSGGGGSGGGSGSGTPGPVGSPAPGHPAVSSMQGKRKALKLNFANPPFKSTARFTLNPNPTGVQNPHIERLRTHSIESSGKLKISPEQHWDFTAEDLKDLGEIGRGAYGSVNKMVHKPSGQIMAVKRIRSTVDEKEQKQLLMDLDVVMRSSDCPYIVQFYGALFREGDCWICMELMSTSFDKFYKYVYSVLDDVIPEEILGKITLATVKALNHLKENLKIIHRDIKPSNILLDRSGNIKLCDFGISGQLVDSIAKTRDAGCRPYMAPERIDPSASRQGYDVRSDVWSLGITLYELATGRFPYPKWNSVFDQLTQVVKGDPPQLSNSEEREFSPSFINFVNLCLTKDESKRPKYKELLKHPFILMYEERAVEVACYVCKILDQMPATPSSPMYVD

[7] = target: Proto-oncogene tyrosine-protein kinase Src (Gallus gallus, UniProt P00523, T338G); experiment: Inhibition of chicken c-Src T338G mutant
[8] = target: T1, Proto-oncogene tyrosine-protein kinase Src; experiment: Inhibition of chicken c-Src
Mus musculus = experiment: Receptor occupancy of Btk in CIA mouse model at 60 mg/kg/day; type: functional
[9] = target: Mitogen-activated protein kinase kinase kinase 1 (Homo sapiens, UniProt Q13233); experiment: Inhibition of MEKK1
Sequence of Mitogen-activated protein kinase kinase kinase 1 (Q13233 whole entry): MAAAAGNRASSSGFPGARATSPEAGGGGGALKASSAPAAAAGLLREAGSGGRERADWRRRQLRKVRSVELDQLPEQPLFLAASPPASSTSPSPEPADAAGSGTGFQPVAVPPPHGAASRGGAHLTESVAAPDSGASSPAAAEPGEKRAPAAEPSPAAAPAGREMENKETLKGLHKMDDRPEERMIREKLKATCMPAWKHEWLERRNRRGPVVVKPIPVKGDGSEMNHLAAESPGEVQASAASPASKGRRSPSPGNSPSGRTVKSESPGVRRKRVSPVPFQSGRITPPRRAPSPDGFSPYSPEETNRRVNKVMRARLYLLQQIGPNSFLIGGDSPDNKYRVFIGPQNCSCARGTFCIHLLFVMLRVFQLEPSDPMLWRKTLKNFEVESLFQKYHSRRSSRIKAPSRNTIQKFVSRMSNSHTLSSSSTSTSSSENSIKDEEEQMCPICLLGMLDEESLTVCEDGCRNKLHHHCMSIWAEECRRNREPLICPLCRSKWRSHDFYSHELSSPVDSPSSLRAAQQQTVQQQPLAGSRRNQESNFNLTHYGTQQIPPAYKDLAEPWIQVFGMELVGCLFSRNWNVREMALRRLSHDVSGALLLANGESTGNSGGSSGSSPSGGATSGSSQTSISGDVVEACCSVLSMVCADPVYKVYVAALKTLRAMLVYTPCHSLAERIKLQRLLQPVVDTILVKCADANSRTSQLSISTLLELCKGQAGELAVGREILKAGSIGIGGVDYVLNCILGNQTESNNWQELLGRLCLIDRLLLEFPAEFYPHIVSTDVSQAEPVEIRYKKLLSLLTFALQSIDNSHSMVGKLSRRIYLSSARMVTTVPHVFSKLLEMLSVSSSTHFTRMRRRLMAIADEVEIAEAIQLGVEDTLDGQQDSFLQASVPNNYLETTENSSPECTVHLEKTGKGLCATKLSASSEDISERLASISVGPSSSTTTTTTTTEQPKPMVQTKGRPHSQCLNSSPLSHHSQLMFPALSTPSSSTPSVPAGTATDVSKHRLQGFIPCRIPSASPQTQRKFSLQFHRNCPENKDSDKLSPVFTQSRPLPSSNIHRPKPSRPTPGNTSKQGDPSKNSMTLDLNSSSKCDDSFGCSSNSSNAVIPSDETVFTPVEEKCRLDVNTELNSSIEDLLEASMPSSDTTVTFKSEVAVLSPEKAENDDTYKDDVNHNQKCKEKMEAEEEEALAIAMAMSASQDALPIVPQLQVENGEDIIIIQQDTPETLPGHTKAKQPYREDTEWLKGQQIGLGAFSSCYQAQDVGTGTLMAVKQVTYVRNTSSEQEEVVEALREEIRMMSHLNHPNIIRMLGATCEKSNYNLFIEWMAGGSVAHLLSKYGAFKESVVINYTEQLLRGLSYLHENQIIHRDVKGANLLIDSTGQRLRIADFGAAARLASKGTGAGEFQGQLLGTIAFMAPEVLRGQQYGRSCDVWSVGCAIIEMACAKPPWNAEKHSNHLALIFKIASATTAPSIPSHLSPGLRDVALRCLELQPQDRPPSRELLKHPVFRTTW

Sequence of Dual specificity mitogen-activated protein kinase kinase 1 (Q02750 whole entry): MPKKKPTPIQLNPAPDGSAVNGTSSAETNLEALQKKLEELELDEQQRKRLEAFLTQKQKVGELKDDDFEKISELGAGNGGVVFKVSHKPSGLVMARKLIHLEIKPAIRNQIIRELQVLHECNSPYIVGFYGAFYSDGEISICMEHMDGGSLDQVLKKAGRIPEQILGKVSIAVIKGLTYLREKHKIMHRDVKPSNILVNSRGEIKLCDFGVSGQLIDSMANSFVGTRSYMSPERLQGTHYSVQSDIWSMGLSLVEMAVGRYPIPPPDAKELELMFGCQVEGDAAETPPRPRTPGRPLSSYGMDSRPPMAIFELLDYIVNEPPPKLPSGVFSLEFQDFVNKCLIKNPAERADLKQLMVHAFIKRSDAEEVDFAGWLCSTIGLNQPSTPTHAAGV
Sequence of RAC-alpha serine/threonine-protein kinase (P31749 whole entry): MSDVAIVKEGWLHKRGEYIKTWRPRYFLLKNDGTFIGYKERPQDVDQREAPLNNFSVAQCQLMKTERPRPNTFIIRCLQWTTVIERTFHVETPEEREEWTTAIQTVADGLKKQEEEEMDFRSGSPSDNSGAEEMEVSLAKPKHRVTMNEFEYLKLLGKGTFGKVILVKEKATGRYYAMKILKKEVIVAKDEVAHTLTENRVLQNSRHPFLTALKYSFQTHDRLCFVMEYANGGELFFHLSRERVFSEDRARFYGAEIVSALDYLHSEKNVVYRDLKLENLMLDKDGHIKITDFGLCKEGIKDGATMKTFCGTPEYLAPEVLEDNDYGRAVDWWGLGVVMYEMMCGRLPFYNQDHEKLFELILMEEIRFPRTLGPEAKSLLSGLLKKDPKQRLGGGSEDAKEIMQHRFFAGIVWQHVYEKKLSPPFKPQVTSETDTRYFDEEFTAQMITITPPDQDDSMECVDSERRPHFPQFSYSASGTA
Sequence of Mitogen-activated protein kinase 1 (P28482 whole entry): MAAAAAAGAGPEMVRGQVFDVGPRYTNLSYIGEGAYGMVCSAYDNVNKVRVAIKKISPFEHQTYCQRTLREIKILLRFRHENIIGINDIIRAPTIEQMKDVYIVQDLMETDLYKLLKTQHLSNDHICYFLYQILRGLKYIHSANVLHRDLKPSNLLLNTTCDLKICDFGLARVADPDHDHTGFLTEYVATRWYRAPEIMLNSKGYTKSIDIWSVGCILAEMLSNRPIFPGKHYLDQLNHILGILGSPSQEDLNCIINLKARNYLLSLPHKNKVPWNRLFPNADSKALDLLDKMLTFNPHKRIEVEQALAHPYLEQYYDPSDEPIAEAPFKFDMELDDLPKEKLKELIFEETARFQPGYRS

CCC[C@H]1O[C@@H]2CC(=O)O[C@@H]2C2=C1C(=O)c1c(O)cccc1C2=O [FRENOLICIN B]
IC50 [1]: 0.313 µM

C=CS(=O)(=O)Nc1cccc(Cc2nn(C(C)C)c3ncnc(N)c23)c1
IC50 [2]: > 5 µM

COc1cc(O)c2c(c1)/C=C/C[C@H](O)[C@H](O)C(=O)/C=C\C[C@H](C)OC2=O
IC50 [3]: 0.006 µM | IC50 [4]: 0.08 µM | IC50 [5]: 0.3 µM | IC50 [6]: > 3 µM

CC#CC(=O)Nc1ccc2ncnc(Nc3cccc(Br)c3)c2c1
IC50 [7]: 0.001 µM | IC50 [8]: > 27 µM

O=C(Nc1ccc2ncnc(Nc3cccc(Br)c3)c2c1)[C@@H]1O[C@H]1CN1CCCCC1
IC50 [7]: 0.001 µM | IC50 [8]: > 27 µM

CN(C)C/C=C/C(=O)Nc1ccc2ncnc(Nc3cccc(Br)c3)c2c1
IC50 [7]: 0.001 µM | IC50 [8]: > 27 µM

C=CC(=O)Nc1cccc(Nc2nc(Nc3ccc(Oc4ccnc(C(=O)NC)c4)cc3)ncc2F)c1
Occ (Mus musculus): 70%

CCNc1cc(O)c2c(c1)/C=C/C[C@@H](O)[C@H](O)C(=O)/C=C\[C@H](C)[C@H](C)OC2=O
IC50 [3]: 0.0052 µM | IC50 [9]: 0.031 µM
